Laboratory results published in patent publication US20080255174A1, “Hydroalcoholic Extract Of Erythrina Mulungu, Pharmaceutical Compositions And Processes For Producing These Substances” (priority 2004, published 2008).

Columns and labels:
Swiss mice [1] = experiment: elevated T maze test (inhibitory avoidance and escape from the open arms); format: in vivo; parameters: Escape: unit not given here; details: for Escape / Inhibitory avoidances E1 / Inhibitory avoidances E2 / Inhibitory avoidances E3 / Inhibitory avoidances E4 / Inhibitory avoidances LB (basal latency): acute, average ± EPM; for Escape: departure time from open arm; for Inhibitory avoidances E1 / Inhibitory avoidances E2 / Inhibitory avoidances E3 / Inhibitory avoidances E4 / Inhibitory avoidances LB (basal latency): latency, maximum 300 seconds
Method: (§1) Swiss mice weighing 25-35 g from the central animal laboratory of the Sao Paulo State University (UNESP/Araraquara) were used. The animals were housed in groups of 10-12 animals, in polypropylene cages with wood shavings on the floor, with food and water available ad […]]. The animal laboratory was maintained under constant temperature 22±1° C., the lighting was controlled in 12-hour cycles from 7:00 am to 7:00 pm and the humidity was kept at between 50-60%. The pharmacological evaluation was performed with extract, standard drug and vehicle. Accordingly, lyophilized hydroalcoholic extract (50, 100, 200 and 400 mg/kg) was used, in addition to F2 (3, 6, 10, 17 and 30 mg/kg) and the alkaloids erythrartine, erythravine and 11-OH-erythravine (3 and 10 mg/kg), administered via oral intake by gavage. The standard drug used was Diazepam (DZP) in a dose of 2 mg/kg (via intraperitoneal, i.p). All solutions were prepared on the day of the experiment with sodium […] 0.9% and sonicated for 15 minutes and the diazepam in a solution of sodium […] 0.9% and Tween-80. The experiments were carried out between 11:00 am and 5:00 pm, and the experiment apparatus and procedures are described ahead. The elevated T maze is made with transparent glass walls and wooden floor and consists of a closed arm (30×5×15 cm) perpendicularly linked to two open arms (30×5×0.25 cm), raised at 38.5 cm above the floor by a wooden support. In this test, five consecutive measures of inhibitory avoidance were performed (basal latency, avoidances 1, 2, 3 and 4) and one measure of escape from the open arms, with intervals of 30 seconds between each attempt. In the avoidance measures, the animals were placed in the distal section of the closed arm and the exit latency of this arm, on all four paws, towards the open arm was timed. In the escape measure, the animals were placed in the extremity of the right-hand open arm and the departure time from this arm was measured. The animals' maximum length of stay in the arms of the maze during these measures was 300 seconds. The apparatus was cleaned with ethanol 20% after testing each animal. In order to avoid false positives or negatives, immediately after testing in the elevated T maze, the animals were submitted to the locomotive activity test in the arena. The apparatus consists of a white polypropylene box with a rectangular base (40×48 cm), surrounded by 30 cm high walls. The floor is subdivided into 30 squares (8×8 cm). In this test, the animals were placed in the center of the box and their activity was video recorded for five minutes, for subsequent analysis of the number of crossings of the quadrant areas and number of stretch-attend postures (WALSH and CUMMINS, 1976).
(§2) All the results from the animal models were initially submitted to the Levene homogeneity test. The heterogeneous results were converted into a logarithmic scale and later analyzed statistically. The results obtained from the elevated T maze were submitted to a two-way analysis of variance (ANOVA), with treatment being an independent factor and attempts being a dependent factor. […] The results obtained with the arena were submitted to a one-way ANOVA followed by the Duncan post hoc test. Amounts p≦0.05 were considered to be significant results.

Swiss mice [2] = experiment: locomotive activity test in the arena; format: in vivo; details: for Crossings / Stretch-attend postures: acute, number in five minutes, average ± EPM
Method: as §1, §2

[3] = system: serotonergic 3 receptor (5-HT3); details: in vitro test (ELSELÈ et al., 1993); cited from earlier work

With COc1cc2c(cc1OC)[C@]13C[C@@H](O)C=CC1=CCN3C[C@H]2O [11-OH-erythravine, 11-hydroxy-erythravine] the Escape (Swiss mice [1]; 3 mg/kg oral by gavage) was 21.5 ± 3.7, the “Inhibitory avoidances E1” value (Swiss mice [1]; 3 mg/kg oral by gavage) was 41.8 ± 14.2 and the “Inhibitory avoidances E2” value (Swiss mice [1]; 3 mg/kg oral by gavage) was 96.0 ± 34.4. The “Inhibitory avoidances E3” value (Swiss mice [1]; 3 mg/kg oral by gavage) was 132.3 ± 39.7, the “Inhibitory avoidances E4” value (Swiss mice [1]; 3 mg/kg oral by gavage) was 194.4 ± 39.5 and the “Inhibitory avoidances LB (basal latency)” value (Swiss mice [1]; 3 mg/kg oral by gavage) was 30.7 ± 5.8. For the same compound, the Escape (Swiss mice [1]; 10 mg/kg oral by gavage) was 26.8 ± 4.8, the “Inhibitory avoidances E1” value (Swiss mice [1]; 10 mg/kg oral by gavage) was 30.0 ± 6.1 and the “Inhibitory avoidances E2” value (Swiss mice [1]; 10 mg/kg oral by gavage) was 54.0 ± 21.1. For the same compound, the “Inhibitory avoidances E3” value (Swiss mice [1]; 10 mg/kg oral by gavage) was 66.6 ± 30.3, the “Inhibitory avoidances E4” value (Swiss mice [1]; 10 mg/kg oral by gavage) was 94.8 ± 31.7 and the “Inhibitory avoidances LB (basal latency)” value (Swiss mice [1]; 10 mg/kg oral by gavage) was 22.6 ± 3.5. The “performance in the inhibitory avoidance task” value (Swiss mice [1]; acute treatment, 3 and 10 mg/kg oral, result in words) was “impaired the performance of the animals in the inhibitory avoidance task”, the Crossings (Swiss mice [2]; 3 mg/kg oral by gavage) was 158.5 ± 7.12 and the Stretch-attend postures (Swiss mice [2]; 3 mg/kg oral by gavage) was 27.7 ± 3.20. For the same compound, the Crossings (Swiss mice [2]; 10 mg/kg oral by gavage) was 126.5 ± 12.71, the Stretch-attend postures (Swiss mice [2]; 10 mg/kg oral by gavage) was 22.4 ± 3.50 and the “locomotive activity (number of crossings and stretch-attend postures)” value (Swiss mice [2]; 3 and 10 mg/kg oral, one-way ANOVA, result in words) was “none of the doses of 11-OH-erythravine used altered the locomotive activity”.

In the case of CO[C@H]1CC=C2CCN3CCC4=C(CC(=O)OC4)[C@]23C1 [DHBE, dihydro-β-erythroidine], the “action at 5-HT3 receptor” value [3] is given as “serotonergic 3 antagonist receptor (5-HT3)”.

For CN1C(=O)CN=C(c2ccccc2)c2cc(Cl)ccc21 [DZP, Diazepam, reference compound], the Escape (Swiss mice [1]; DZP 2 mg/kg i.p.) was 19.0 ± 3.2, the “Inhibitory avoidances E1” value (Swiss mice [1]; DZP 2 mg/kg i.p.) was 15.3 ± 3.8 and the “Inhibitory avoidances E2” value (Swiss mice [1]; DZP 2 mg/kg i.p.) was 12.25 ± 1.6. For the same compound, the “Inhibitory avoidances E3” value (Swiss mice [1]; DZP 2 mg/kg i.p.) was 22.3 ± 7.7, the “Inhibitory avoidances E4” value (Swiss mice [1]; DZP 2 mg/kg i.p.) was 24.2 ± 7.3 and the “Inhibitory avoidances LB (basal latency)” value (Swiss mice [1]; DZP 2 mg/kg i.p.) was 24.6 ± 4.1. The Crossings (Swiss mice [2]; DZP 2 mg/kg i.p.) was 154.6 ± 19.48 and the Stretch-attend postures (Swiss mice [2]; DZP 2 mg/kg i.p.) was 19.13 ± 2.03.
